From patent US10155749B2, “Substituted benzimidazolium compounds useful in the treatment of respiratory diseases” (Boehringer Ingelheim International GmbH, priority 2015, dated 2018)

Tests used:
[1] = target: T1, ENaC (Epithelial Sodium Channel) (Mus musculus, UniProt Q61180+Q9WU38+Q9WU39); assay: Ussing Chamber assay (short circuit current, amiloride sensitive I_SC) in M-1 cells; type: cell-based; details: Mouse kidney M-1 cells, apical application, 37° C.
T1 construct: Mouse kidney M-1 cells were cultivated in DMEM containing 5% FCS and 5 μM dexamethasone; endogenous in cells; host or cells: Mouse kidney M-1 cells
T1 sequence (Q61180 1-699): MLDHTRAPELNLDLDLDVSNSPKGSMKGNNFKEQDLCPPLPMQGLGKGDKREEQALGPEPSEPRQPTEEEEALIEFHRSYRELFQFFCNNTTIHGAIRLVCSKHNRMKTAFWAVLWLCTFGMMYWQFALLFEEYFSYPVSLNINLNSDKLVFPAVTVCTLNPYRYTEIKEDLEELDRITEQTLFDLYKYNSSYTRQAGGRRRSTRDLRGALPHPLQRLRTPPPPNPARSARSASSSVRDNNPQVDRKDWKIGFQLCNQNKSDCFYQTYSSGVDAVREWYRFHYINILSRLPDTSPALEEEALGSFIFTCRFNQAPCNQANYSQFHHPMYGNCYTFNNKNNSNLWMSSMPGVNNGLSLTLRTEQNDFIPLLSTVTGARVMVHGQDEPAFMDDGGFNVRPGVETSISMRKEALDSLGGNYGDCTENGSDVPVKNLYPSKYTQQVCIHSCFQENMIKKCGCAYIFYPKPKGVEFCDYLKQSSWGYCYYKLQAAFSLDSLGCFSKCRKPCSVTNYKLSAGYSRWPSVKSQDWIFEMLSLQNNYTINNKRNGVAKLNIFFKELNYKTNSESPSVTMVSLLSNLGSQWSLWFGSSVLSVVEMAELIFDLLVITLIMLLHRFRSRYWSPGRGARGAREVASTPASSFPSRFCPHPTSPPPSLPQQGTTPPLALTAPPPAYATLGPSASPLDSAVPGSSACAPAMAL
T1 sequence (Q9WU38 1-638): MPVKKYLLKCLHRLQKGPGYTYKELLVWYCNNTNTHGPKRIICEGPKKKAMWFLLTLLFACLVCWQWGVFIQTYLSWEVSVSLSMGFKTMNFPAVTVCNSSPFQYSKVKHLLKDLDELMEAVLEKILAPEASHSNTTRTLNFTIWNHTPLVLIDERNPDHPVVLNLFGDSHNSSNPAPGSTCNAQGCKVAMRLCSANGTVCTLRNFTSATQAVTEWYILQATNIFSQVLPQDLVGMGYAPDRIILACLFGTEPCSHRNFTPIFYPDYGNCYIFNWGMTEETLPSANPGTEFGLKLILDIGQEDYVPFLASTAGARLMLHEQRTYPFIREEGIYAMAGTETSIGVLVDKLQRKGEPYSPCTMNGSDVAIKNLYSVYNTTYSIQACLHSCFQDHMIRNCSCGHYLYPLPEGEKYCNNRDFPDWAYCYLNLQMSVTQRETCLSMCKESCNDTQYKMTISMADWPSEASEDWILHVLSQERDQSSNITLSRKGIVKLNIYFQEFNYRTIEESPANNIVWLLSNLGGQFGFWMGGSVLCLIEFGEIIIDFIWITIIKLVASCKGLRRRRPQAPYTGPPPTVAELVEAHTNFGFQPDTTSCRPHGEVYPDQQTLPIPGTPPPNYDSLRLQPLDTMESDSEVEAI
T1 sequence (Q9WU39 1-655): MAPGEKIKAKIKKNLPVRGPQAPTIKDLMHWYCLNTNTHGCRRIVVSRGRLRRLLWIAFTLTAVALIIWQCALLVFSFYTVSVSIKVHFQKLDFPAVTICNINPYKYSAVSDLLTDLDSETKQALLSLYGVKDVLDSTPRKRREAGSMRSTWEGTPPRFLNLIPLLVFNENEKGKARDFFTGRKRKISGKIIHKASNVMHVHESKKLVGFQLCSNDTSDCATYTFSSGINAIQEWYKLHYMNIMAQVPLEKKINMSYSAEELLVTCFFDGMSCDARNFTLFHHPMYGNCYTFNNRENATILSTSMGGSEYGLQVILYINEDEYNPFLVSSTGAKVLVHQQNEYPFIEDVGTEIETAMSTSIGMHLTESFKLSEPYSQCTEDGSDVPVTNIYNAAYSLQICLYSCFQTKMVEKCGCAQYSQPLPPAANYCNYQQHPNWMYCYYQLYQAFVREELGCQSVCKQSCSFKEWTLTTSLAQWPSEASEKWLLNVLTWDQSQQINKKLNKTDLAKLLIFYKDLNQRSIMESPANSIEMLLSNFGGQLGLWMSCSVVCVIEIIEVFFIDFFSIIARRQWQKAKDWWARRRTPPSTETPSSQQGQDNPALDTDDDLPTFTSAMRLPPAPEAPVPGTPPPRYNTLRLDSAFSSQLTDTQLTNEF
Experimental: The IC50 values of the example compounds given above were determined in the Ussing Chamber assay.
Ussing Chamber: Mouse kidney M-1 cells were cultivated in DMEM containing 5% FCS and 5 μM dexamethasone for 10 to 12 days on polyester transwell filters. Filters were inserted into a teflon-coated well-plate which fit into the ussing chamber system. Prior to measurement the medium of M-1 cells was replaced with Caco-2 transport buffer (Invitrogen, Germany). During measurements, the Ussing chamber temperature was kept at 37° C. Short circuit currents (I_sc) were measured in the voltage-clamp mode with the software package Lab View for data acquisition and analysis. The transepithelial electrical resistance (TEER) was determined by the application of voltage steps of ±5 mV every 5 sec. Compounds were administered at a final concentration of 3 μM or at increasing concentrations (1-3-10 μM) to the apical solution. At the end of each experiment the amiloride sensitive I_SC was measured by adding 3 μM amiloride to the apical compartment. Results are expressed as inhibition in percent of the amiloride effect or as IC50.

[2] = Permeability in CALU-3 cells; type: in vitro ADME; details: human, CALU-3 monolayers, pH 7.4, 37° C., 10 μM compound; for Papp A→B at 90 min, 10 μM: apical-to-basal; for Papp B→A at 90 min, 10 μM: basal-to-apical
Experimental: Permeability in CALU-3 Cells:
Permeability measurements across polarized, confluent CALU-3 cell monolayers grown on permeable filter supports are used to provide information on the potential of a compound to pass the lung epithelium. Apparent permeability coefficients (Papp) of the compounds across the CALU-3 cell monolayers are measured (pH 7.4, 37° C.) in apical-to-basal (AB) and basal-to-apical (BA) transport direction.
CALU-3 cells (1-2×10^5 cells/1 cm^2 area) are seeded on filter inserts (Costar transwell polycarbonate filters, 0.4 μm pore size) and cultured (for 10-12 days DMEM) until tight monolayers are formed. Compounds of interest are dissolved in appropriate solvent (DMSO, 10 mM stock solution). Stock solutions are diluted with HTP-4 buffer (128.13 mM NaCl, 5.36 mM KCl, 1 mM MgSO4, 1.8 mM CaCl2, 4.17 mM NaHCO3, 1.19 mM Na2HPO4×7H2O, 0.41 mM NaH2PO4×H2O, 15 mM HEPES, 20 mM glucose, 0.25% BSA, pH 7.4) to prepare the transport solutions (10 μM compound, final DMSO<=0.5%). The transport solution (TL) is applied to the apical or basolateral donor side for measuring A-B or B-A permeability (3 filter replicates), respectively. The receiver side contains the same buffer as the donor side. After 30 min of accommodation, samples are collected at the start t0=0 min and at the end of the experiment tn=90 min from the donor and at 0, 30, 60, and 90 min also from the receiver chamber. Volume removed is […] by HTP-4 buffer. The compound concentration in the samples is measured by HPLC-MS/MS or scintillation counting. The permeability coefficient (Papp) and efflux ratio are calculated according to: Papp [cm/s]=(concentration receiver [nM]*volume receiver [mL]/time interval [sec])*(1/filter area)*(1/donor concentration [nM]).

IC50 [1] [nM] | Papp A→B at 90 min, 10 μM [2] [×10⁻⁶ cm/s] | Papp B→A at 90 min, 10 μM [2] [×10⁻⁶ cm/s] | Structure (SMILES)
2 | 0.04 | 0.06 | CC[n+]1c(CNC(=O)c2nc(Cl)c(N)nc2N)n(CCO)c2cc(OCC(=O)NCCC[n+]3cccc([O-])c3)ccc21.O=C([O-])C(F)(F)F [Example 1.01]
25 | 0.08 | 0.1 | CC[n+]1c(CNC(=O)c2nc(Cl)c(N)nc2N)n(C[C@H](C)O)c2cc(N(C)C)c(C(=O)N3CCN(C(=O)OC(C)(C)C)CC3)cc21.O=C([O-])C(F)(F)F [Example 1.02]
1 | 0.1 | 0.01 | CC[n+]1c(CNC(=O)c2nc(Cl)c(N)nc2N)n(C[C@H](C)O)c2cc(OCCN(CP(C)(C)=O)C(=O)CC(C)C)ccc21.O=C([O-])C(F)(F)F [Example 1.05]
1 | 0.08 | 0.2 | CC[n+]1c(CNC(=O)c2nc(Cl)c(N)nc2N)n(CC2CC2)c2cc(OCC(=O)N(C)Cc3nc(C)ccc3O)ccc21 [Example 1.08]
8 | 0.1 | 0.04 | CC[n+]1c(CNC(=O)c2nc(Cl)c(N)nc2N)n(CC2CCCCC2)c2cc(OCCOP(=O)(O)CCC[N+](C)(C)C)ccc21 [Example 1.12]
8 | 0.2 | 0.08 | CCCCCCN(C)C(=O)c1cc2c(cc1O[C@H]1COC[C@@H]1O)n(CCO)c(CNC(=O)c1nc(Cl)c(N)nc1N)[n+]2CC.O=C([O-])C(F)(F)F [Example 1.15]
2 | 0.2 | 0.3 | CCn1c(CNC(=O)c2nc(Cl)c(N)nc2N)[n+](CC)c2ccc(OCC(=O)N(Cc3nc(C)ccc3O)C[C@H](C)O)cc21.O=C([O-])C(F)(F)F [Example 3.05]
1 | 0.02 | 0.03 | CCn1c(CNC(=O)c2nc(Cl)c(N)nc2N)[n+](CC)c2ccc(C(=O)NCCN(C)C)cc21.Cl.[Cl-] [Example 3.06]
15 | 0.08 | 0.08 | CCNC(=O)c1cc2c(cc1OCC(=O)NCCN(C)C)n(CC)c(CNC(=O)c1nc(Cl)c(N)nc1N)[n+]2CC.Cl.[Cl-] [Example 3.17]
2 |  |  | CCOc1cc2c(cc1C(=O)N1CCN(C(=O)c3cncc(O)c3)CC1)[n+](CC)c(CNC(=O)c1nc(Cl)c(N)nc1N)n2CC [Example 4.16]
23 |  |  | CC[n+]1c(CNC(=O)c2nc(Cl)c(N)nc2N)n(C[C@H](C)O)c2cc(N(C)C)c(C(=O)N3CCN(C(=O)c4cncc(O)c4)CC3)cc21 [Example 4.17]
19 |  |  | CCCCCOc1cc2c(cc1C(=O)N1CCN(C(=O)c3cncc(O)c3)CC1)[n+](CC)c(CNC(=O)c1nc(Cl)c(N)nc1N)n2C[C@H](C)O [Example 4.18]
14 |  |  | CCn1c(CNC(=O)c2nc(Cl)c(N)nc2N)[n+](CC)c2cc(C(=O)O)c(N3CCOCC3)cc21 [Example 6.01]
8 |  |  | CCNC(=O)COc1cc2c(cc1C(=O)NC1CCNCC1)[n+](CC)c(CNC(=O)c1nc(Cl)c(N)nc1N)n2CC [Example 6.03]
0.4 |  |  | CCn1c(CNC(=O)c2nc(Cl)c(N)nc2N)[n+](CC)c2ccc(OCCNC(=O)C3CCCN3)cc21 (stereo not shown) [Example 6.04]
1 |  |  | CCn1c(CNC(=O)c2nc(Cl)c(N)nc2N)[n+](CC)c2ccc(OCCNC(=O)CN3CCC(N)CC3)cc21 [Example 6.05]
0.4 |  |  | CCn1c(CNC(=O)c2nc(Cl)c(N)nc2N)[n+](CC)c2cc(C(=O)NC3CCNCC3)c(F)cc21 [Example 6.06]
0.4 |  |  | CCn1c(CNC(=O)c2nc(Cl)c(N)nc2N)[n+](CC)c2ccc(OCCNC(=O)[C@H](C)N)cc21 [Example 6.07]
1 |  |  | CCNC(=O)c1cc2c(cc1OCC(=O)NC1CCNCC1)n(CC)c(CNC(=O)c1nc(Cl)c(N)nc1N)[n+]2CC [Example 6.08]
38 |  |  | CCNC(=O)c1cc2c(cc1OCC(=O)O)n(CC)c(CNC(=O)c1nc(Cl)c(N)nc1N)[n+]2CC [Example 7.01]
29 |  |  | CCn1c(CNC(=O)c2nc(Cl)c(N)nc2N)[n+](CC)c2cc(C(=O)NC3CCNCC3)c(OCC(=O)O)cc21 [Example 7.02]
6 |  |  | CC[n+]1c(CNC(=O)c2nc(Cl)c(N)nc2N)n(C[C@H](C)O)c2cc(N(C)C)c(C(=O)N3CCNCC3)cc21 [Example 8.01]
1 |  |  | CCOc1cc2c(cc1C(=O)N1CCNCC1)[n+](CC)c(CNC(=O)c1nc(Cl)c(N)nc1N)n2CC [Example 8.02]
8 |  |  | CCCCCOc1cc2c(cc1C(=O)N1CCNCC1)[n+](CC)c(CNC(=O)c1nc(Cl)c(N)nc1N)n2C[C@H](C)O [Example 8.03]
9 |  |  | CCn1c(CNC(=O)c2nc(Cl)c(N)nc2N)[n+](CC)c2cc(C(=O)NC3CCN(C(=O)OC(C)(C)C)CC3)c(OCC(=O)O)cc21 [Example 9.01]
